Read-outs that look alike come from different tables or passages of the source. Starred links: 1 amine or outer side, 2 acyl side, 3 side chain; linkers in the order of their positions; H or OH if unused. Non-standard residues stand in square brackets, D forms with d. No end group written: not given here. *: point of attachment. K(DNP) = O=C([C@H](CCCCNc1ccc([N+](=O)[O-])cc1[N+](=O)[O-])N[*:1])[*:2]; Dnp = O=[N+]([O-])c1ccc(*)c([N+](=O)[O-])c1; Benzoyl(2-NHMe) = CNc1ccccc1C(=O)*
Key:
[1] = tested on: enzyme (protease) of the present invention; format: biochemical, Aureobacterium sp. MIM-CG-9535-I
Experimental: Reagents in the form of o-phenanthroline, EDTA, EGTA, L-cysteine, 2-mercaptoethanol, N-ethylmaleimide, antipain, leupepsin, E-64, phosphoramidon, trypsin inhibitor, chymostatin, TCPK, PMSF, and iodoacetamide were employed as inhibitors.
Each of the reagents was mixed with the synthetic substrate after which the enzyme was added. The degradation reaction was conducted for 30 min at 37° C. and the enzymatic activity was measured. Adopting the case where no inhibitor was added as 100 percent, the relative residual enzymatic activity was calculated.

[2] = tested on: protease described in Japanese Patent Application Publication No. 2000-102381; settings: protease of JP 2000-102381; cited from earlier work
[3] = tested on: enzyme (protease) of the present invention; assay: Cutting activity (specific protease activity) on fluorescence-labeled synthetic peptides; format: biochemical, Aureobacterium sp. MIM-CG-9535-I; settings: for Present or Absent of Specific degradation activity: fluorescence-labeled peptides with varied peptide chain; for Protease cutting activity (degradation of synthetic substrate), Enzyme of the present invention: 100 microgram labeled peptide, 1 microgram protease, 10 min at 37° C. in the dark
Source text: Fluorescence-labeled peptides having the amino acid sequences denoted by (1) to (3) below are synthesized by the usual methods. Specifically, a fluorescent substance is attached as label on one side of the cutting site of a peptide having one of the amino acid sequences listed below, and a light-extinguishing substance is attached on the other side. Only when the labeled peptide has been cleaved is florescence detected. No fluorescence is detected even when employed as substrate for an enzyme not having cutting activity on the amino acid sequences given below. The substances used to label the peptide are not specifically limited other than that they be fluorescent and light-extinguishing substances. For example, N-methylanthranic acid can be employed as the fluorescent substance, and a dinitrophenyl group can be employed as the light-extinguishing substance.
To determine specific protease activity in the present invention, a fluorescence-labeled synthetic peptide, obtained by labeling a peptide having one of the amino acid sequences denoted by (1) to (3) above with N-methylanthranic acid on one end and labeling the other end thereof with a dinitrophenyl group, is employed as substrate and incubated with a prescribed quantity of enzyme for a prescribed period in the dark. Subsequently, the product is separated by reverse-phase chromatography and the fluorescent intensity of the separated product is measured to determine cutting activity.
Nma/Dnp florescence-labeled peptides (excitation wavelength 340 nm, fluorescence wavelength 440 nm) having the amino acid sequences of (1) to (3) below labeled on one end with N-methylanthranic acid and on the other end with a dinitrophenyl group were synthesized with a peptide synthesizer by the usual method.
Employing as substrate one of the fluorescence-labeled synthetic peptides obtained, cutting activity was measured under the following conditions.
(§1) A 100 microgram quantity of fluorescence-labeled synthetic peptide was adjusted to 0.2 mg/mL with 10 mM Tris buffer solution, 1 microgram of the above protease of the present invention was added, and the mixture was incubated for 10 min at 37° C. in the dark. The enzyme reaction solution obtained was subjected to reverse-phase HPLC using TSKgel® ODS-80Ts (silica-based, reverse phase chromatography resin; Tosoh Corp.) from 0.1 percent TFA to 80 percent acetonitrile-0.1 percent TFA at a flow rate of 1 mL/min and a gradient of 40 min to separate the degraded peptides. Employing A215 and a fluorescence spectrometer for high-performance liquid chromatography made by Shimatsu Corp., fluorescent intensity was measured at an excitation wavelength of 340 nm and a fluorescence wavelength of 440 nm.
The structure of the peptide chain was varied in the amino acid sequence of (1) above, fluorescence-labeled synthetic peptides were synthesized in the same manner as above, and cutting activity was measured in the same manner as above to verify the amino acids required for the above specific degradation activity.

[4] = tested on: protease described in Japanese Patent Application Publication No. 2000-102381; settings: protease of JP 2000-102381; cited from earlier work; remark: listed apart in the source
[5] = tested on: enzyme described in Japanese Patent Application Publication No. 2000-102381; assay: Cutting activity on fluorescence-labeled synthetic peptides, comparison enzyme; format: biochemical, Aureobacterium; settings: identical conditions: 10 min at 37° C. in the dark
Experimental: as §1
For comparison, the cutting activity of the enzyme described in the above-cited patent application publication (Japanese Patent Application Publication No. 2000-102381) was measured under identical conditions.

[6] = Temperature stability of the enzyme; format: physicochemical; settings: then 30 min at 37° C. with substrate
Experimental: i) Temperature Stability • The enzyme was left standing for one hour at various temperatures of from 0 to 60° C. and subsequently reacted with a synthetic substrate for 30 min at 37° C. Enzyme activity was then measured.

[7] = inhibitor 20 mM, 30 min at 37° C., no inhibitor = 100 percent
[8] = inhibitor 0.05 mM, 30 min at 37° C., no inhibitor = 100 percent

With `OCCS` [2-ME, 2-mercaptoethanol] the “Residual activity (%)” value [1, 7] was 73%.

In the case of `CC(C)C[C@H](NC(=O)[C@@H](NC(=O)N[C@@H](Cc1ccccc1)C(=O)O)[C@@H]1CCN=C(N)N1)C(=O)N[C@H](C=O)Cc1ccccc1` [Chymostatin, chymostatin], the “Residual activity (%)” value [1, 8] is reported as 85%.

In the case of `CC(C)C[C@H](NC(=O)[C@H]1O[C@@H]1C(=O)O)C(=O)NCCCCN=C(N)N` [E-64], the “Residual activity (%)” value [1, 8] is reported as 95%.

In the case of `O=C(O)CN(CCN(CC(=O)O)CC(=O)O)CC(=O)O` [EDTA, ethylenediamine tetraacetic acid], the “Residual activity (%)” value [1] is listed as 93% and the Enzyme inhibition [2] is listed as “not”.

In the case of `O=C(O)CN(CCOCCOCCN(CC(=O)O)CC(=O)O)CC(=O)O` [EGTA], the “Residual activity (%)” value ([1]; inhibitor 10 mM, 30 min at 37° C., no inhibitor = 100 percent) is reported as 68%.

In the case of `NC(=O)CI` [Iodoacetamide, iodoacetamide], the “Residual activity (%)” value [1, 7] is given as 77% and the Enzyme inhibition [2] is given as “not”.

In the case of `N[C@@H](CS)C(=O)O` [L-Cys, L-cysteine], the “Residual activity (%)” value [1, 7] is given as 0% and the Enzyme inhibition [2] is given as “inhibited”.

With `CC(=O)N[C@@H](CC(C)C)C(=O)N[C@@H](CC(C)C)C(=O)N[C@H](C=O)CCCNC(=N)N` [Leupepsin, leupepsin] the “Residual activity (%)” value [1, 8] was 92%.

For `CCN1C(=O)C=CC1=O` [N-Ethylmaleimide, N-ethylmaleimide], the “Residual activity (%)” value [1, 7] is listed as 79% and the Enzyme inhibition [2] is listed as “not”.

In the case of `O=S(=O)(F)Cc1ccccc1` [PMSF, phenylmethanesulfonyl fluoride], the “Residual activity (%)” value [1, 7] is listed as 84% and the Enzyme inhibition [2] is listed as “not”.

With `CC(C)C[C@H](NP(=O)(O)O[C@@H]1O[C@@H](C)[C@H](O)[C@@H](O)[C@H]1O)C(=O)N[C@@H](Cc1c[nH]c2ccccc12)C(=O)O` [Phosphoramidon, phosphoramidon] the “Residual activity (%)” value [1, 8] was 91%.

For `Cc1ccc(S(=O)(=O)N[C@@H](Cc2ccccc2)C(=O)CCl)cc1` [TCPK], the “Residual activity (%)” value ([1]; inhibitor 0.1 mM, 30 min at 37° C., no inhibitor = 100 percent) was 95%.

In the case of `c1cnc2c(c1)ccc1cccnc12` [o-Phenanthroline, o-phenanthroline], the “Residual activity (%)” value ([1]; inhibitor 2 mM, 30 min at 37° C., no inhibitor = 100 percent) is listed as 0% and the Enzyme inhibition [2] is listed as “inhibited”.

For “AG FAGP: fluorescence-labeled synthetic peptide, single letter code (AGFAGP; also: fluorescence label, site not given here)”, the “Present or Absent of Specific degradation activity” value (“Present or Absent” for short) [3] was “Absent”.

For “DNP-Gln-Gly-Ile-Ala-Gly-Gln-D-Arg (Dnp-QGIAGQ[dR]) [synthetic substrate]”, the Degradation activity [4] is given as “no degradation activity”.

For “DNP-Pro-Gln-Gly-Ile-Ala-Gly-Gln-D-Arg (Dnp-PQGIAGQ[dR]) [synthetic collagenase substrate]”, the Degradation activity [4] is listed as “only slight degradation activity”.

For “G FAGP: fluorescence-labeled synthetic peptide, single letter code (GFAGP; also: fluorescence label, site not given here)”, the “Present or Absent” value [3] was “Absent”.

For “GPAG F: fluorescence-labeled synthetic peptide, single letter code (GPAGF; also: fluorescence label, site not given here)”, the “Present or Absent” value [3] was “Absent”.

In the case of “GPAG FA: fluorescence-labeled synthetic peptide, single letter code (GPAGFA; also: fluorescence label, site not given here)”, the “Present or Absent” value [3] is reported as “Absent”.

For “GPAG FAG: fluorescence-labeled synthetic peptide, single letter code (GPAGFAG; also: fluorescence label, site not given here)”, the “Present or Absent” value [3] was “Absent”.

For “Nma-Gly-Pro-Ala-Gly-Phe-Ala-Gly-Pro-Lys-(DNP)r-NH2 ({Benzoyl(2-NHMe)}-GPAGFAGP-{K(DNP)-dR-NH2}; SMILES CNc1ccccc1C(=O)NCC(=O)N1CCC[C@H]1C(=O)N[C@@H](C)C(=O)NCC(=O)N[C@@H](Cc1ccccc1)C(=O)N[C@@H](C)C(=O)NCC(=O)N1CCC[C@H]1C(=O)N[C@@H](CCCCNc1ccc([N+](=O)[O-])cc1[N+](=O)[O-])C(=O)N[C@H](CCCNC(=N)N)C(N)=O) [Gly-Pro-Ala-Gly-↓-Phe-Ala-Gly-Pro, fluorescence-labeled synthetic substrate]”, the “Protease cutting activity (degradation of synthetic substrate), Enzyme of patent application publication” value [5] was “(X) Does not degrade”, the “Protease cutting activity (degradation of synthetic substrate), Enzyme of the present invention” value [3] was “(◯) Degrades” and the “Present or Absent” value [3] was “Present”.

With “Nma-Gly-Pro-Gln-Gly-Phe-Gln-Gly-Pro-Lys-(DNP)r-NH2 ({Benzoyl(2-NHMe)}-GPQGFQGP-{K(DNP)-dR-NH2}; SMILES CNc1ccccc1C(=O)NCC(=O)N1CCC[C@H]1C(=O)N[C@@H](CCC(N)=O)C(=O)NCC(=O)N[C@@H](Cc1ccccc1)C(=O)N[C@@H](CCC(N)=O)C(=O)NCC(=O)N1CCC[C@H]1C(=O)N[C@@H](CCCCNc1ccc([N+](=O)[O-])cc1[N+](=O)[O-])C(=O)N[C@H](CCCNC(=N)N)C(N)=O) [Gly-Pro-Gln-Gly-↓-Phe-Gln-Gly-Pro, fluorescence-labeled synthetic substrate]” the “Protease cutting activity (degradation of synthetic substrate), Enzyme of patent application publication” value [5] was “(X) Does not degrade” and the “Protease cutting activity (degradation of synthetic substrate), Enzyme of the present invention” value [3] was “(◯) Degrades”.

In the case of “Nma-Thr-Gln-Ser-Leu-Val-Thr-Pro-Lys-(DNP)r-NH2 [Gln-Thr-Gln-Ser-↓-Leu-Val-Thr-Pro]”, the “Protease cutting activity (degradation of synthetic substrate), Enzyme of patent application publication” value [5] is reported as “(X) Does not degrade” and the “Protease cutting activity (degradation of synthetic substrate), Enzyme of the present invention” value [3] is reported as “(◯) Degrades”.

With “Pro-Ala-Gly-Phe-Ala-Gly-Pro (PAGFAGP; also: fluorescent label, type and site not given here) [PAG FAGP, fluorescence-labeled synthetic peptide, single letter code]” the “Present or Absent” value [3] was “Present”.

In the case of “Pro-Gln-Gly-Ile-Ala-Gly-Gln (PQGIAGQ; also: fluorescence label, site not given here) [Pro-Gln-Gly-↓-Ile-Ala-Gly-Gln, fluorescence-labeled synthetic substrate degraded by the enzyme of the earlier publication]”, the “Protease cutting activity (degradation of synthetic substrate), Enzyme of patent application publication” value [5] is reported as “(◯) Degrades” and the “Protease cutting activity (degradation of synthetic substrate), Enzyme of the present invention” value [3] is reported as “(X) Does not degrade”.

For casein, the Degradation activity [4] is given as “exhibits degradation activity”.

B1: protease of the present invention: protease of molecular weight 21,000±1,000 from Aureobacterium sp. MIM-CG-9535-I cutting specific Gly-Phe and Ser-Leu sites (protein, listed as Aureobacterium sp.)
chain: LIVNTVNSIDDKWSDAQASALTYCVSTAFGARHADVVSAMESGAALWEAASSKIDFIYDSSADANCTTRNNAVLFSVEPVQTTQYIARAFFPSTAPRLQNVLIDDSIWTPGSSWTPTNVLGHELGHVLGFRHEHTRPEAGTCFEDDNWRPLTPYDSSSIMHYPQCNGSSADLSMTSVDTDGVVALYGN
In the case of B1, the “Temperature stability: residual activity” value ([6]; left standing one hour at 30° C.) is reported as “about half” and the Temperature stability ([6]; left standing one hour at 40° C. and above) is reported as “nearly deactivated”.
